Assays:
cancer cells = assay: Antiproliferative activity against cancer cells (cell line not stated); type: cell-based, human; settings: general statement
From the text: (§1) We first screened compounds derived from the known pharmacopeia and from a selected natural product collection using two types of assays: (a) measurements of post-translational modifications of proteins; (b) measurements of protein-protein interactions. For the purpose of measuring post-translational modifications of proteins, we used immunofluorescence methods combined with phospho-specific antibodies. For the purpose of quantifying and localizing protein complexes we used fluorescence methods based on protein-fragment complementation assays (PCA). ‘Hits’ from the initial screens were then tested for antiproliferative activity in up to 5 different human tumor cell lines. […] For drugs with antiproliferative activity in PC-3 cells, dose-response curves were generated to determine the EC50 for antiproliferative activity and additional tumor cell lines were tested to determine the breadth of activity. Methods for assay development, validation, screening, and testing of antiproliferative activity are described below.
Cells were maintained in various media as follows: A549, LoVo and PC-3 (Ham's F12K medium with 2 mM L-glutamine and 1.5 g/L sodium bicarbonate), MIA PaCa-2 (Dulbecco's modified Eagle's medium with 4 mM L-glutamine and 4.5 g/L glucose), U87-MG (MEM+Earle's BSS). Medium for each cell line was supplemented with 10% FBS and […] Penecillin/Streptomycin. All cells were grown in incubators set at 37° C., 5% CO2. Thiazolyl Blue Tetrazolium Bromide (MTT) based proliferation assays were performed to assess the anti-proliferative activities of the compounds on these cells. Cells were seeded in 96 well plates at a density of 750 cells/well 24 hours prior to compound treatment. The cells were incubated with varying concentrations of compounds for 120 hours. Compound concentrations range from 0.03 to 100 microM (half log increments) except for alpha-Tomatine (0.001-100 microM, half log increments), Neriifolin (0.0002-100 microM) and Peruvoside (0.01-100 microM). Drug treatment was performed in 5 replicate wells. Background absorbance was established by wells containing medium but no cells. Vehicle (DMSO) only was used as control. MTT (Sigma-Aldrich, St. Louis, Mo.) was added to each well at a final concentration of 0.5 mg/ml. Following a 2 hour incubation at 37° C., medium in the wells was replaced with 0.15 ml DMSO. The plates were agitated for 15 min using a microtiter plate shaker. […] Mean absorbance values were calculated from 5 replicate wells of each drug treatment following subtraction of background absorbance from blank samples and plotted as a percentage of control.

PC-3 cells = assay: MTT proliferation assay, prostate adenocarcinoma PC-3; type: cell-based, Human; settings: for IC50: Homo sapiens, Tumor Cell: Prostate (PC-3), MTT, 120 hours, concentrations tested in microM
From the text: as §1
(§2) Cells were maintained in various media as follows: A549, LoVo and PC-3 (Ham's F12K medium with 2 mM L-glutamine and 1.5 g/L sodium bicarbonate), MIA PaCa-2 (Dulbecco's modified Eagle's medium with 4 mM L-glutamine and 4.5 g/L glucose), U87-MG (MEM+Earle's BSS). Medium for each cell line was supplemented with 10% FBS and […] Penecillin/Streptomycin. All cells were grown in incubators set at 37° C., 5% CO2. Thiazolyl Blue Tetrazolium Bromide (MTT) based proliferation assays were performed to assess the anti-proliferative activities of the compounds on these cells. Cells were seeded in 96 well plates at a density of 750 cells/well 24 hours prior to compound treatment. The cells were incubated with varying concentrations of compounds for 120 hours. […] Drug treatment was performed in 5 replicate wells. Background absorbance was established by wells containing medium but no cells. Vehicle (DMSO) only was used as control. MTT (Sigma-Aldrich, St. Louis, Mo.) was added to each well at a final concentration of 0.5 mg/ml. Following a 2 hour incubation at 37° C., medium in the wells was replaced with 0.15 ml DMSO. The plates were agitated for 15 min using a microtiter plate shaker.

A549 cells = assay: MTT proliferation assay, non-small cell lung carcinoma A549; type: cell-based, Human; settings: Homo sapiens, Tumor Cell: NSCLC (A549), concentrations tested in microM
From the text: as §1, §2

U-87 MG cells = assay: MTT proliferation assay, glioblastoma U-87 MG; type: cell-based; settings: Homo sapiens, Tumor Cell: Glioblastoma (U-87 MG), 120 hours, concentrations tested in microM
From the text: as §1, §2

MIA PaCa-2 cells = assay: MTT proliferation assay, pancreatic carcinoma MIA PaCa-2; type: cell-based; settings: Homo sapiens, Tumor Cell: Pancreatic (MIA PaCa-2), concentrations tested in microM
From the text: as §1, §2

cancer pathways = assay: Screening of cancer pathways in human cells (PCA and phospho-immunofluorescence); type: cell-based; settings: cancer pathway in which the drug was active; screened at 10 micromolar, HEK293 cells
From the text: as §1
Immunofluorescence was performed on drug-treated cells using antibodies that specifically recognize phosphorylated forms of key signaling proteins. HEK293T cells were seeded in black-walled, poly-lysine coated 96-well plates (Greiner) at a density of 30,000/well. After 24 hours, cells in duplicate wells were treated with drugs. 100 ng/ml hEGF added to the cells during the last 5 min of drug treatment. The cells were rinsed once with PBS and fixed with 4% formaldehyde for 10 min. The cells were subsequently permeabilized with 0.25% Triton X-100 in PBS and incubated with 3% BSA for 30 min to block non-specific antibody binding. Each of the 4 sets of identically treated cells were then incubated with rabbit antibodies against phosphorylated CREB (Ser133), hsp27 (Ser82), pERK (T202/Y204) (Cell Signaling), or BSA in PBS. The cells were rinsed with PBS and incubated with Alexa488 conjugated goat anti-rabbit secondary antibody (Molecular Probes). Cell nuclei were stained with Hoechst33342 (Molecular Probes). Images were acquired using Discovery-1 High Content Imaging System (Molecular Devices). Background fluorescence due to nonspecific binding by the secondary antibody was established with the use of cells that were incubated with BSA/PBS and without primary antibodies. Fluorescence intensities were quantitated using Image J-based image analysis algorithm as described below.
Reporter fragments for PCA were generated by oligonucleotide synthesis (Blue Heron Biotechnology, Bothell, Wash.). First, oligonucleotides coding for polypeptide fragments YFP[1]and YFP[2] […] Next, PCR mutagenesis was used to generate the mutant fragments IFP[1] and IFP[2]. The IFP[1] fragment corresponds to YFP[1]-(F46L, F64L, M153T) and the IFP[2] fragment corresponds to YFP[2]-(V163A, S175G). […] The YFP[1], YFP[2], IFP[1] and IFP[2] fragments were amplified by PCR to incorporate restriction sites and a linker sequence, described below, in configurations that would allow fusion of a gene of interest to either the 5′- or 3′-end of each reporter fragment. The reporter-linker fragment cassettes were subcloned into a mammalian expression vector (pcDNA3.1Z, Invitrogen) that had been modified to incorporate the replication origin (oriP) of the Epstein Barr virus (EBV). […] Additionally, these vectors still retain the SV40 origin, allowing for episomal expression in cell lines expressing the SV40 large T antigen (e.g. HEK293T, Jurkat or COS). […] PCA fusion constructs were prepared for a large number of proteins known to participate in cellular pathways (Table 1 and Table 2). The full coding sequence for each gene of interest was amplified by PCR from a sequence-verified full-length cDNA.

LoVo cells = assay: MTT proliferation assay, colon adenocarcinoma LoVo; type: cell-based; settings: Homo sapiens, Tumor Cell: Colon (LoVo), 120 hours, concentrations tested in microM
From the text: as §1, §2

Compound | IC50 (PC-3 cells) [nM] | IC50 (A549 cells; A549, 120 h) [nM] | IC50 (U-87 MG cells) [nM] | IC50 (MIA PaCa-2 cells; MIA PaCa-2, 120 h) [nM] | IC50 (LoVo cells) [nM] | Antiproliferative activity against cancer cells (cancer cells) | Pathway Activity (cancer pathways) | Antiproliferative activity in the PC-3 assay (PC-3 cells; FIG. 1, compared to DMSO control) | IC50 (A549 cells; 120 hours) [nM] | IC50 (MIA PaCa-2 cells; 120 hours) [nM]
COC(=O)[C@H]1[C@H]2C[C@H]3c4[nH]c5cc(OC)ccc5c4CCN3C[C@H]2C[C@@H](OC(=O)c2cc(OC)c(OC)c(OC)c2)[C@@H]1OC [Isoreserpine] | 11700 | 3950 | 9020 | 3920 | 2730 | substantial antiproliferative activity | apoptosis |  |  | 
CC(C)c1c(C(=O)Nc2ccccc2)c(-c2ccccc2)c(-c2ccc(F)cc2)n1CC[C@@H](O)C[C@@H](O)CC(=O)O [Atorvastatin] |  |  | 4600 |  |  | substantial antiproliferative activity | invasion/metastasis |  |  | 
CC(C)(C)c1ccc(C(O)CCCN2CCC(C(O)(c3ccccc3)c3ccccc3)CC2)cc1 (centres unmarked) [Terfenadine] | 1320 | 550 | 380 | 350 | 990 | substantial antiproliferative activity | invasion/metastasis |  |  | 
Cc1cccc(Nc2cc(Cl)nc(SCC(=O)O)n2)c1C [WY-14643] |  |  |  |  |  |  |  | inactive |  | 
CO[C@H]1[C@H](O)[C@H](O[C@H]2CC[C@@]3(C=O)[C@H](CC[C@@H]4[C@@H]3CC[C@]3(C)[C@@H](C5=CC(=O)OC5)CC[C@]43O)C2)O[C@@H](C)[C@@H]1O [Peruvoside] |  |  |  |  |  | substantial antiproliferative activity | cell cycle |  | < 30 | < 30
CCCSc1ccc2nc(NC(=O)OC)[nH]c2c1 [Albendazole] |  |  |  |  |  | substantial antiproliferative activity | invasion/metastasis |  | 280 | 140

Second part, led by results:

IC50 (PC-3 cells) [nM] | IC50 (A549 cells; A549, 120 h) [nM] | IC50 (U-87 MG cells) [nM] | IC50 (MIA PaCa-2 cells; MIA PaCa-2, 120 h) [nM] | IC50 (LoVo cells) [nM] | Compound | Antiproliferative activity against cancer cells (cancer cells) | Pathway Activity (cancer pathways) | Antiproliferative activity in the PC-3 assay (PC-3 cells; FIG. 1, compared to DMSO control) | IC50 (A549 cells; 120 hours) [nM] | IC50 (MIA PaCa-2 cells; 120 hours) [nM]
630 | 230 | 860 | 770 | 1400 | CC1(C)CCC2=C(O1)c1ccccc1C(=O)C2=O [beta-Lapachone] | substantial antiproliferative activity | apoptosis |  |  | 
1330 | 660 | 810 | 590 | 450 | O=C(Nc1ccc([N+](=O)[O-])cc1Cl)c1cc(Cl)ccc1O [Niclosamide] | substantial antiproliferative activity | apoptosis |  |  | 
 | 29400 |  | 13900 |  | O=C(CCCN1CC=C(n2c(=O)[nH]c3ccccc32)CC1)c1ccc(F)cc1 [Droperidol] | substantial antiproliferative activity | invasion/metastasis |  |  | 

Source: patent US20060009506A1, “Drugs for the treatment of neoplastic disorders” (Odyssey Thera, Inc., priority 2004, published 2006)
